pEC50: −log10 of the molar value.
Legend:
primary human T-cells = experiment: IL2 secretion measurements in CD3-stimulated T-cells; type: cell-based; conditions: CD3 condition; for Emax IL2 (% activation): 24 hours, 20 μM reference compound A1 = 100%; for pEC50: Homo sapiens, T-cell, IL2 secretion after 24 hours, read-out: Tcell IL2 CD3 EC50
In short: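 Expanded primary human T-cells (100 k/well, RPMI + 5% human serum) on plate-bound anti-CD3 (donor-titrated) or PBS counter-screen wells, 5–6 pt dose response from 20 or 10 μM top (dilution factor 3.333), 0.2% DMSO final. IL-2 in 24 h supernatant by ProQuantum immunoassay or ELISA. Normalised to DMSO (0%) and 20 μM reference A1 (100%); EC50 and Emax from sigmoidal fit.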

MV-3 RFP cells = experiment: T-cell-TCB-MV3 killing assay; type: cell-based; conditions: MV-3, 120 h, primary human T-cells + MCSP-TCB, 5 d; for Emax: 20 μM reference compound A1 = 100%, read-out: MSCP TCB killing MV-3 cells 5 d Emax; for pEC50: read-out: MSCP TCB killing MV-3 cells 5 d EC50
Procedure: All culturing steps are executed at 5% CO2, 37° C. and 95% humidity.
MV-3 RFP cells are cultured in MV-3 medium (DMEM+10% FBS, 1× PenStrep and 0.5 μg/mL Puromycin) for at least 3 weeks. Cultured MV-3 cells at 80% confluency are washed once with PBS−− and trypsinized until detached. […] Cells are seeded with 100 μL/well into a 96-well plate (TTP, #92696), and placed for 40 minutes without moving at room temperature in order to achieve evenly distributed attachment of cells. Plates are then incubated until further use.
On the next day, expanded primary human T-cells are thawed and resuspended in T-cell medium to 4*10^6 cells/mL. For 3 hours, they are cultured in a 6-well plate with 6 mL per well at maximum. After culturing the T-cells, they are filtered through a cell strainer (Miltenyi Biotech, #130-041-407), counted again, and cell concentration is adjusted to 2*10^6 cells/mL.
MCSP-TCB or PBS are pre-diluted in T-cell medium (concentration depending on T-cell donor), 4 times more concentrated than the end-concentration. 60 μL/well of pre-dilutions are then distributed into a round bottom plate (Costar, #3799) according to plate layout. Compounds are added in a 9 pt dose response with the Tecan D300e Digital Dispenser, as well 4 times more concentrated than the end-concentration. DMSO concentration of all wells is adjusted to 0.8%, resulting in 0.2% as final concentration.
60 μL per well of T-cell suspension are added to the prepared round bottom plate and resuspended with a manual multichannel. 100 μL/well of the resuspended T-cell suspension including treatments are then transferred cautiously to the over-night cultured MV-3 cells according to plate layout. 100 μL T-cell medium only is added to the outer MV-3 wells only. Final compound DR is starting at 20 μM with a dilution factor of 3.333. Final TCB concentration is between […] and was determined for each T-cell donor individually by running TCB titrations. For each donor, a TCB concentration was chosen which corresponds to 10-20% of MV3 baseline cell killing in the absence of compound treatment. Positive control is the reference compound A1 which is added in a DR, as well as additional wells with only 20 μM. 20 μM of reference compound A1 represent the positive stimulator control, TCB only (DMSO wells) the neutral control.
After transfer of T-cells with treatment pre-dilutions, MV-3 cells are imaged by time-lapse microscopy using IncucyteZOOM™ (Essen BioScience, MI, USA). Imaging is performed every 3 hours for a total of 120 hours (10× objective, phase and red image channels, acquisition time 400 ms, Green/Red 4614 optical module). RFP object count per well is analysed in the IncucyteZOOM™ Software (Version 2019B Rev2) with a mask that was previously created and optimized for MV-3 cells. Raw data is exported as object count/well and values are normalized as % TCL compared to wells with MV-3 only, representing 100% growth and therefore 0% TCL.
Calculated % TCL values are analysed in Genedata Screener using Roche Normalization PCT_POS_CTRL with MCSP-TCB only set as Neutral Control and 20 μM of the reference compound A1 set as Stimulator Control/100%.

Row | pEC50 (primary human T-cells) | SMILES | Emax IL2 (% activation) (primary human T-cells) | Emax (MV-3 RFP cells) [%] | pEC50 (MV-3 RFP cells)
1 | 5.45 | CC(C)(C#N)c1cncc(-c2cc3c(cc2F)S(=O)(=O)C[C@H](N)C(=O)N3Cc2ccc(-c3noc(C(F)(F)F)n3)cc2)c1 [Example 23, 2-[5-[(3R)-3-amino-8-fluoro-1,1,4-triketo-5-[4-[5-(trifluoromethyl)-1,2,4-oxadiazol-3-yl]benzyl]-2,3-dihydro-1λ6,5-benzothiazepin-7-yl]-3-pyridyl]-2-methyl-propionitrile] | 213 |  | 
2 | 6.34 | CC(C)(C)c1cncc(-c2cc3c(cc2F)S(=O)(=O)C[C@H](N)C(=O)N3Cc2ccc(Cl)cc2)c1 [Example 2, (3R)-3-amino-7-(5-tert-butyl-3-pyridyl)-5-[(4-chlorophenyl)methyl]-8-fluoro-1,1-dioxo-2,3-dihydro-1λ6,5-benzothiazepin-4-one] | 109 | 85 | 7.11
3 | 5.34 | CC(C)(c1cncc(-c2cc3c(cc2F)S(=O)(=O)C[C@H](N)C(=O)N3Cc2ccc(-c3noc(C(F)(F)F)n3)cc2)c1)S(C)(=O)=O [Example 25, (3R)-3-amino-8-fluoro-1,1-diketo-7-[5-(1-mesyl-1-methyl-ethyl)-3-pyridyl]-5-[4-[5-(trifluoromethyl)-1,2,4-oxadiazol-3-yl]benzyl]-2,3-dihydro-1λ6,5-benzothiazepin-4-one] | 168 | 86 | 6.08

More lines, now with the values behind:

Row | SMILES | pEC50 (primary human T-cells) | Emax IL2 (% activation) (primary human T-cells) | Emax (MV-3 RFP cells) [%] | pEC50 (MV-3 RFP cells)
4 | CC(C)(C)c1cnnc(-c2cc3c(cc2F)S(=O)(=O)C[C@H](N)C(=O)N3Cc2ccc(Cl)cc2)n1 [Example 11, (3R)-3-amino-7-(5-tert-butyl-1,2,4-triazin-3-yl)-5-[(4-chlorophenyl)methyl]-8-fluoro-1,1-dioxo-2,3-dihydro-1λ6,5-benzothiazepin-4-one] | 6.92 | 79 | 118 | 6.87
5 | COc1ccc(-c2ccc(CN3C(=O)[C@@H](N)CS(=O)(=O)c4cc(F)c(-c5cnc(C)c(C)c5)cc43)cc2)cc1 [Example 28, (3R)-3-amino-7-(5,6-dimethyl-3-pyridyl)-8-fluoro-5-[[4-(4-methoxyphenyl)phenyl]methyl]-1,1-dioxo-2,3-dihydro-1λ6,5-benzothiazepin-4-one] | 6.12 | 237 | 89 | 7.16

From US20250236617A1, “BICYCLIC TETRAHYDROTHIAZEPINE DERIVATIVES” (Hoffmann-La Roche Inc., priority 2022, published 2025)
